Biological target: T1, rat prestin labelled with GFP (Rattus norvegicus, UniProt Q9EPH0)
T1 sequence (Q9EPH0 1-744): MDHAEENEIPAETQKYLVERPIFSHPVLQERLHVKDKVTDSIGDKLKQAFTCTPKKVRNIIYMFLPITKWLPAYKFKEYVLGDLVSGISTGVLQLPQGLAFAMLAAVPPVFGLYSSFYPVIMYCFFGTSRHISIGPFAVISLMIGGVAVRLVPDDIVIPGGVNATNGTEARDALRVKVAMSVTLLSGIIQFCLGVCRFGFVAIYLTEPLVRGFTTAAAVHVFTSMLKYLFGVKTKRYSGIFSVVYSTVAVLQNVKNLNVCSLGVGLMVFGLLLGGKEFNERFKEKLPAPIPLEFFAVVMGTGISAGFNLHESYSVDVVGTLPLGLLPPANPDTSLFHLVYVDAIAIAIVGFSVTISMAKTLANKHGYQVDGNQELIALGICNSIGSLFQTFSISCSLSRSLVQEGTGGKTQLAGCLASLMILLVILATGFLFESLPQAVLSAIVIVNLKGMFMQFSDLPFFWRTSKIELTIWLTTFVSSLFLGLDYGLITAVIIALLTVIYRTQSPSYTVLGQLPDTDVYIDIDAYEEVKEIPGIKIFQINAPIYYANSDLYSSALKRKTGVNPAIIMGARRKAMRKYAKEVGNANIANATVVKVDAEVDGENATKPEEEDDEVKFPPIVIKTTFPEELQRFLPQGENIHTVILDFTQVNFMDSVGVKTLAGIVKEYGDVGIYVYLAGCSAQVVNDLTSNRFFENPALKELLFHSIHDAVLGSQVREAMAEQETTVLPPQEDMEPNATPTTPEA
Assay: whole-cell patch clamp of transfected HEK […] cells, nonlinear capacitance
Type: cell-based
Settings: 500 μM extracellular 9-AC; intracellular 135 mM CsCl; pH 7.2; 21.5 °C

Q max reduction at 500 μM: 59 ± 19%
Compound: O=C(O)c1c2ccccc2cc2ccccc12 [9‐anthracenecarboxylic acid]
